In patent publication US20100137449A1, “SUBSTITUTED 1,3-CYCLOPENTADIONE MULTI-TARGET PROTEIN KINASE MODULATORS OF CANCER, ANGIOGENESIS AND THE INFLAMMATORY PATHWAYS ASSOCIATED THEREWITH” (METAPROTEOMICS, LLC, priority 2007, published 2010):

Key:
Experiment in all cases: KinaseProfiler Assay
MARK1(h) = MARK1(h) (Homo sapiens, UniProt Q9P0L2)
ZAP-70(h) = target: T1, ZAP-70(h) (Homo sapiens, UniProt P43403)
T1 sequence (P43403 1-619): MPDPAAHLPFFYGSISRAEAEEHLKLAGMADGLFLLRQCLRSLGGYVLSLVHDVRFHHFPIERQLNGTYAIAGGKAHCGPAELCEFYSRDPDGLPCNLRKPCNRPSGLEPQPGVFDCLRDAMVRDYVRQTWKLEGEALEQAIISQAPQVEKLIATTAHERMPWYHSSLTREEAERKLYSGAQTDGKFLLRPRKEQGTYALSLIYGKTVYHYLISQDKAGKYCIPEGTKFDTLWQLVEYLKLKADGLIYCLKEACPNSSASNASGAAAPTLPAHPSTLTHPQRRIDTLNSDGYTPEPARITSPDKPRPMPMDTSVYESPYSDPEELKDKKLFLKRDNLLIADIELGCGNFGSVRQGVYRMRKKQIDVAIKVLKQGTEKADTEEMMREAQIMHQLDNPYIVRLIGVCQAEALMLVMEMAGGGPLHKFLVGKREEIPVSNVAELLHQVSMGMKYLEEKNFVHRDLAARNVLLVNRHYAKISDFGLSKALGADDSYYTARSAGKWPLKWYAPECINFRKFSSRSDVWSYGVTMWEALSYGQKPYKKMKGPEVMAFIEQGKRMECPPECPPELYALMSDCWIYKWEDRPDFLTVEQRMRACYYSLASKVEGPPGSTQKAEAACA

EphA1(h) = target: T2, EphA1(h) (Homo sapiens, UniProt P21709)
T2 sequence (P21709 26-976): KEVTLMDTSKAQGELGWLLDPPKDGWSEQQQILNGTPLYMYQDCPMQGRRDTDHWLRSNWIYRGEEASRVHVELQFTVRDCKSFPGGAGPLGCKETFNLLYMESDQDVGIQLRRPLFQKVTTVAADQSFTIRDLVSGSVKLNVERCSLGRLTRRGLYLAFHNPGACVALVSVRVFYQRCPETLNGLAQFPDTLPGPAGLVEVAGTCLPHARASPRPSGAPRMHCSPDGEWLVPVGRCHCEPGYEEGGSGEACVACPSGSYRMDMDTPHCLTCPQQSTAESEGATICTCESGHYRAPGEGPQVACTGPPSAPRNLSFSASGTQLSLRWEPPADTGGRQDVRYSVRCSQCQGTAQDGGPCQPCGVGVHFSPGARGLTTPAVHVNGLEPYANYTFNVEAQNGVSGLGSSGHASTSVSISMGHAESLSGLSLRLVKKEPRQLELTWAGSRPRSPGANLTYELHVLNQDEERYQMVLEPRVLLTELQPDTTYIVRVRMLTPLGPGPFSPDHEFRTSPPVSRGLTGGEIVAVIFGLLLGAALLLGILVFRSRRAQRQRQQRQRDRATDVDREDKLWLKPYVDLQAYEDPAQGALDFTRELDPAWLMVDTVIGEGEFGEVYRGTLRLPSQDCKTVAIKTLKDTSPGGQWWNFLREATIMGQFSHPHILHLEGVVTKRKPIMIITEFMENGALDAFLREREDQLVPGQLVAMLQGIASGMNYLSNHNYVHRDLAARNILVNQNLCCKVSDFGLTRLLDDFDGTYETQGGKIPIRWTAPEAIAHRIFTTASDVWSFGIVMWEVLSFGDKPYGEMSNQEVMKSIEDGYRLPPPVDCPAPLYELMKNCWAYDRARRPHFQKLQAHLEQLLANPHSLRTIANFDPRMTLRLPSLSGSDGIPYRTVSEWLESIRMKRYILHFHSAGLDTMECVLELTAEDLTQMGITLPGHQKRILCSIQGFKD

Syk(h) = Syk(h) (Homo sapiens, UniProt P43405)
SAPK4(h) = target: T3, SAPK4(h) (Homo sapiens, UniProt O15264)
T3 sequence (O15264 1-365): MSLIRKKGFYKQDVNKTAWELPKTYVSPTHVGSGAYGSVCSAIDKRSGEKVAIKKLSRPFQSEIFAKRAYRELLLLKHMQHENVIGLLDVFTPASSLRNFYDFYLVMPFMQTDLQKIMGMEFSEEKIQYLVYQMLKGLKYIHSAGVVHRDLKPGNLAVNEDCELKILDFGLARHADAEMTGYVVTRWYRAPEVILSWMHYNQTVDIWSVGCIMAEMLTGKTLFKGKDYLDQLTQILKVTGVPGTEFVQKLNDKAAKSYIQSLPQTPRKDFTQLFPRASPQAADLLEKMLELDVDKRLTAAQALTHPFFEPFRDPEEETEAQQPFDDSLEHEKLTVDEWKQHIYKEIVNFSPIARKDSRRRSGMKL

PDGFRα(D842V)(h) = PDGFRα(D842V)(h) (Homo sapiens, UniProt P16234, D842V)
HIPK2(h) = HIPK2(h) (Homo sapiens, UniProt Q9H2X6)
Pim-3(h) = Pim-3(h) (Homo sapiens, UniProt Q86V86)

Sequence of PDGFRα(D842V)(h) (P16234 24-1089 D842V): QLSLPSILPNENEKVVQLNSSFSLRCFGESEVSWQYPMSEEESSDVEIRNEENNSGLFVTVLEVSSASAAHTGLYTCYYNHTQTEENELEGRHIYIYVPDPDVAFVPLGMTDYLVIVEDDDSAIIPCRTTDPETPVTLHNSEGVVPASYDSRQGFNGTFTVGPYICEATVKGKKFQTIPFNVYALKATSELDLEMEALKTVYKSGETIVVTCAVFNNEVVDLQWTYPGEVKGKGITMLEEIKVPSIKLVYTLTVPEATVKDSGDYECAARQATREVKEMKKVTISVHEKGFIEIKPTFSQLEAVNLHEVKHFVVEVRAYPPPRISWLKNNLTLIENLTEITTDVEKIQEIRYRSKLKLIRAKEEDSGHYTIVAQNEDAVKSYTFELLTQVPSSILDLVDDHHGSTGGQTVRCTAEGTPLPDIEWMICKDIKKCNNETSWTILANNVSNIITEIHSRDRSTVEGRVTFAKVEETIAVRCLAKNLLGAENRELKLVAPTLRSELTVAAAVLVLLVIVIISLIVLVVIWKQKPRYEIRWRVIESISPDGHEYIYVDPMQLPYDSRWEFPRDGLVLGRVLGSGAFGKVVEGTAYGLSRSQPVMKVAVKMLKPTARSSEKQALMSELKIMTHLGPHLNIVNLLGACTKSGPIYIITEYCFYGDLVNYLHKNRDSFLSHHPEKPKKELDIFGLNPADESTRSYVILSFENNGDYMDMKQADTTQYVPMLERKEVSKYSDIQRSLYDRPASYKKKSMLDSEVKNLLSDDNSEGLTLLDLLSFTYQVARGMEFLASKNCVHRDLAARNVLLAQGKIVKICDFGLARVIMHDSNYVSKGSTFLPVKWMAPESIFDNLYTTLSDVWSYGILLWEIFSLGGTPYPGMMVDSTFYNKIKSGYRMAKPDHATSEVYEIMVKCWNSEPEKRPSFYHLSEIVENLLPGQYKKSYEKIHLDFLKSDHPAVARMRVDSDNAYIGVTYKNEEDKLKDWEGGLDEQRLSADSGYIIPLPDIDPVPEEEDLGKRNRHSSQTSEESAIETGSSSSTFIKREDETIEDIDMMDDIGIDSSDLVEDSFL
Sequence of MARK1(h) (Q9P0L2 whole entry): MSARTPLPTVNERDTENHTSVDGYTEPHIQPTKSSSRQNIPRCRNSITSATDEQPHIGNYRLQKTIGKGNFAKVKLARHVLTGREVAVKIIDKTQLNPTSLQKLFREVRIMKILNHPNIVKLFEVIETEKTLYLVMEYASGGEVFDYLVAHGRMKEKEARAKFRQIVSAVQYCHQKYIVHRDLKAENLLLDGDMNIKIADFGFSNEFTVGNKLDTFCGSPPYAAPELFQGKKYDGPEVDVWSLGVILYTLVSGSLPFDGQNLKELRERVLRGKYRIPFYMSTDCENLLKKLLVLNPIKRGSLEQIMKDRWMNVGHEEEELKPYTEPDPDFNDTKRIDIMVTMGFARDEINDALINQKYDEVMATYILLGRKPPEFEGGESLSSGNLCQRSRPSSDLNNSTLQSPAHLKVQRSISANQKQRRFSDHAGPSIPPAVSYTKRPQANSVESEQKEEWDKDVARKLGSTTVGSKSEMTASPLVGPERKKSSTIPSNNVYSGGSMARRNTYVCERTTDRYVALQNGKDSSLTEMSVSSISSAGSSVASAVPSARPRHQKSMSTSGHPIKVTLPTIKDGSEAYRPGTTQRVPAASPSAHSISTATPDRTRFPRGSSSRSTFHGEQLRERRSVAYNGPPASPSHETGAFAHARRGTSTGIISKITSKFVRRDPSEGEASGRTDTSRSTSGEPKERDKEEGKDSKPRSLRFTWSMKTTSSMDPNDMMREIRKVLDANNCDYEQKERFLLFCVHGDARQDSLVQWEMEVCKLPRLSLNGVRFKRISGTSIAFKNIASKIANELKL
Sequence of HIPK2(h) (Q9H2X6 whole entry): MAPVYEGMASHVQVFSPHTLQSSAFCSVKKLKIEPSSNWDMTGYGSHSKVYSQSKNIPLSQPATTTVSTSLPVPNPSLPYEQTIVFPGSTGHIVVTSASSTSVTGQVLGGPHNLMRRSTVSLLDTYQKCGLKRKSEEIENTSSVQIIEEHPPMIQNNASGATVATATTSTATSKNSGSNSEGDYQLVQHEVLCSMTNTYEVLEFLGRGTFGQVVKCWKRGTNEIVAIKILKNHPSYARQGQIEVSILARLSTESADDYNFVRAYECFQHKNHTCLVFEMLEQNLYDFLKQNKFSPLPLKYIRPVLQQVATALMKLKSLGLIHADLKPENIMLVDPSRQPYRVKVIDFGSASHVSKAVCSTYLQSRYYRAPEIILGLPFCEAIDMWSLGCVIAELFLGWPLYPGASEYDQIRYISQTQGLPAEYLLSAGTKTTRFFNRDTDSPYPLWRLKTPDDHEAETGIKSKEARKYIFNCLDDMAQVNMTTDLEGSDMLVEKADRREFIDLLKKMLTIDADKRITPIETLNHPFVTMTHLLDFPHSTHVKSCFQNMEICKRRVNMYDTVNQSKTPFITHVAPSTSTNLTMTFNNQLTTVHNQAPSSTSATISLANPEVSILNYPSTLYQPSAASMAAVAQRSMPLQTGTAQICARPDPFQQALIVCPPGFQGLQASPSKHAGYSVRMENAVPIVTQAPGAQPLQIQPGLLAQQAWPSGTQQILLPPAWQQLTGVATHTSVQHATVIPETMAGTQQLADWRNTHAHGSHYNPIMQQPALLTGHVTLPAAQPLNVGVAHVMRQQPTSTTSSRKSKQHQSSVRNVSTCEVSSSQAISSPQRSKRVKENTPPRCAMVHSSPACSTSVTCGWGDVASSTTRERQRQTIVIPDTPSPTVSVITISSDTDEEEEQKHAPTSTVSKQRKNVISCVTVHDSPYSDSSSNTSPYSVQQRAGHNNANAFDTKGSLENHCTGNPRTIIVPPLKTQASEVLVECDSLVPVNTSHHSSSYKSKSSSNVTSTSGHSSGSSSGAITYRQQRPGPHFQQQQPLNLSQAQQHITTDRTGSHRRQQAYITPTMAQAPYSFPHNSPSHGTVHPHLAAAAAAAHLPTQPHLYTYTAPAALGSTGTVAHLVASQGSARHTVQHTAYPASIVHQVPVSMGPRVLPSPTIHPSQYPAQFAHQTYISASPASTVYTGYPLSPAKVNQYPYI

## CC(C)CCC(=O)[C@]1(O)C(O)=C(C(=O)C(C)C)C(=O)[C@H]1CCC(C)C [TH2, tetrahydroiso-cohumulone]
MARK1(h); 1 μg/ml
  kinase inhibition: 109% of control
MARK1(h); 5 μg/ml
  kinase inhibition: 110% of control
MARK1(h); 25 μg/ml
  kinase inhibition: 97% of control
MARK1(h); 50 μg/ml
  kinase inhibition: 90% of control
MARK1(h); 100 μg/ml
  kinase inhibition: 63% of control
ZAP-70(h); 1 μg/ml
  kinase inhibition: 125% of control
ZAP-70(h); 5 μg/ml
  kinase inhibition: 110% of control
ZAP-70(h); 25 μg/ml
  kinase inhibition: 124% of control
ZAP-70(h); 50 μg/ml
  kinase inhibition: 124% of control
ZAP-70(h); 100 μg/ml
  kinase inhibition: 107% of control
EphA1(h); 1 μg/ml
  kinase inhibition: 117% of control
EphA1(h); 5 μg/ml
  kinase inhibition: 116% of control
EphA1(h); 25 μg/ml
  kinase inhibition: 108% of control
EphA1(h); 50 μg/ml
  kinase inhibition: 99% of control
EphA1(h); 100 μg/ml
  kinase inhibition: 85% of control
Syk(h); 1 μg/ml
  kinase inhibition: 135% of control
Syk(h); 5 μg/ml
  kinase inhibition: 120% of control
Syk(h); 25 μg/ml
  kinase inhibition: 63% of control
Syk(h); 50 μg/ml
  kinase inhibition: 37% of control
Syk(h); 100 μg/ml
  kinase inhibition: 47% of control
SAPK4(h); 1 μg/ml
  kinase inhibition: 114% of control
SAPK4(h); 5 μg/ml
  kinase inhibition: 118% of control
SAPK4(h); 25 μg/ml
  kinase inhibition: 116% of control
SAPK4(h); 50 μg/ml
  kinase inhibition: 121% of control
SAPK4(h); 100 μg/ml
  kinase inhibition: 109% of control
PDGFRα(D842V)(h); 1 μg/ml
  kinase inhibition: 113% of control
PDGFRα(D842V)(h); 5 μg/ml
  kinase inhibition: 124% of control
PDGFRα(D842V)(h); 25 μg/ml
  kinase inhibition: 128% of control
PDGFRα(D842V)(h); 50 μg/ml
  kinase inhibition: 129% of control
PDGFRα(D842V)(h); 100 μg/ml
  kinase inhibition: 127% of control
HIPK2(h); 1 μg/ml
  kinase inhibition: 120% of control
HIPK2(h); 5 μg/ml
  kinase inhibition: 111% of control
HIPK2(h); 25 μg/ml
  kinase inhibition: 115% of control
HIPK2(h); 50 μg/ml
  kinase inhibition: 110% of control
HIPK2(h); 100 μg/ml
  kinase inhibition: 97% of control
Pim-3(h); 1 μg/ml
  kinase inhibition: 104% of control
Pim-3(h); 5 μg/ml
  kinase inhibition: 104% of control
Pim-3(h); 25 μg/ml
  kinase inhibition: 72% of control
Pim-3(h); 50 μg/ml
  kinase inhibition: 70% of control
Pim-3(h); 100 μg/ml
  kinase inhibition: 64% of control
